What was measured:
mouse [1] = settings: Sub-acute repeat dose toxicity, Oral, Gavage/Intubation, dose end: 14 day, group: systemic
rat [2] = settings: Sub-acute repeat dose toxicity, Oral, Gavage/Intubation, dose end: 14 day, group: systemic
dog [3] = settings: Sub-acute repeat dose toxicity, beagle, Oral, Gavage/Intubation, dose end: 14 day, group: systemic
primate [4] = settings: Sub-acute repeat dose toxicity, Oral, Gavage/Intubation, dose end: 14 day, group: systemic
primate [5] = settings: Subchronic oral toxicity in nonrodent, Gavage/Intubation, dose end: 91 day, group: systemic, systemic / pathology microscopic / intestine small / erosion
dog [6] = settings: Sub-acute repeat dose toxicity; beagle; Oral; Gavage/Intubation; dose end: 14 day; group: systemic; systemic / clinical chemistry / [other] / [other] + systemic / clinical chemistry / cytochrome p450, nos / cytochrome p450, nos + systemic…
dog [7] = settings: Subchronic oral toxicity in nonrodent, beagle, Gavage/Intubation, dose end: 91 day, group: systemic, systemic / pathology microscopic / brain / necrosis
rat [8] = settings: Prenatal developmental toxicity study, Oral, Gavage/Intubation, dose end: 18 GD
mouse [9] = settings: Subchronic oral toxicity in rodents, Gavage/Intubation, dose end: 91 day, group: systemic
rat [10] = settings: Fertility (Segment I), Oral, Gavage/Intubation, dose end: 1 generation, group: parental
dog [11] = settings: Subchronic oral toxicity in nonrodent, beagle, Gavage/Intubation, dose end: 91 day, group: systemic, systemic / in life observation / clinical signs / emesis + systemic / organ weight / liver / absolute + systemic / pathology microscopic / …
rat [12] = settings: Chronic toxicity, Oral, Gavage/Intubation, dose end: 182 day, group: systemic
rat [13] = settings: Subchronic oral toxicity in rodents, wistar, Feed, dose end: 90 day, group: systemic, systemic / pathology gross / adrenal gland / discolored + systemic / pathology gross / adrenal gland / enlarged + systemic / pathology …
dog [14] = settings: Chronic toxicity, beagle, Oral, Feed, dose end: 52 week, group: systemic
rat [15] = settings: Carcinogenicity, wistar, Oral, Feed, dose end: 24 month, group: systemic
rat [16] = settings: Multigenerational reproductive toxicity study, wistar, Oral, Feed, dose end: 2 generation
rabbit = settings: Prenatal developmental toxicity study; himalayan; Oral; Gavage/Intubation; dose end: 28 GD; group: maternal; systemic / in life observation / food consumption / food consumption + systemic / organ weight / adrenal gland / absolute + systemic / organ…
rat [17] = settings: Chronic toxicity; wistar; Oral; Feed; dose end: 104 week; group: systemic; systemic / pathology microscopic / eye / degeneration + systemic / pathology microscopic / prostate / fibrosis + systemic / pathology …
mouse [18] = settings: Carcinogenicity, other, Oral, Feed, dose end: 18 month, group: systemic
[19] = systemic / clinical chemistry / [other] / [other] + systemic / clinical chemistry / cytochrome p450, nos / cytochrome p450, nos + systemic…
[20] = systemic / clinical chemistry / [other] / [other]
[21] = systemic / hematology / leukocyte (wbc) count differential / leukocyte (wbc) + systemic / in life observation / body weight / body weight …
[22] = systemic / clinical chemistry / [other] / [other] + systemic / clinical chemistry / creatinine / creatinine + systemic / clinical chemistry…
[23] = systemic / in life observation / clinical signs / abnormal feces + systemic / in life observation / food consumption / food consumption + …
[24] = systemic / hematology / erythrocyte (rbc) count differential / erythrocyte (rbc) + systemic / hematology / hematocrit (hct) / hematocrit (…
[25] = systemic / in life observation / body weight / body weight + systemic / in life observation / clinical signs / [other] + systemic / in life …
[26] = group: developmental, developmental / developmental malformation / bone / delayed ossification + developmental / developmental malformation / bone / [other] + …
[27] = group: maternal, systemic / in life observation / body weight / body weight gain + systemic / in life observation / clinical signs / abnormal feces + …
[28] = systemic / clinical chemistry / [other] / [other] + systemic / hematology / leukocyte (wbc) count differential / leukocyte (wbc) + systemic…
[29] = systemic / in life observation / body weight / body weight + systemic / in life observation / food consumption / food consumption
[30] = systemic / clinical chemistry / albumin / albumin + systemic / clinical chemistry / calcium / calcium + systemic / clinical chemistry / …
[31] = systemic / organ weight / kidney / absolute + systemic / pathology microscopic / intestine small / erosion
[32] = systemic / hematology / reticulocyte / reticulocyte + systemic / organ weight / adrenal gland / absolute + systemic / organ weight / adrenal…
[33] = systemic / pathology microscopic / liver / eosinophilic focus + systemic / pathology microscopic / lung / foam cell aggregation
[34] = systemic / pathology microscopic / liver / eosinophilic focus + systemic / pathology microscopic / lung / foam cell aggregation + systemic…
[35] = group: offspring, systemic / organ weight / adrenal gland / absolute + systemic / organ weight / liver / absolute
[36] = group: parental, systemic / organ weight / epididymis / absolute
[37] = group: reproductive, reproductive / reproductive performance / fertility / fertility + reproductive / offspring survival early / birth index / live birth index
[38] = systemic / organ weight / adrenal gland / relative to body weight + systemic / organ weight / brain / relative to body weight + systemic / …

CC(C)(C)c1cc(/C=C2\SC(N)=NC2=O)cc(C(C)(C)C)c1O.CS(=O)(=O)O [Darbufelone mesylate]
LOAEL (mouse [1]; [19]): > 800 mg/kg/day | NOAEL (mouse [1]; [19]): ≥ 800 mg/kg/day | NEL (mouse [1]; systemic / organ weight / liver / absolute): < 35 mg/kg/day | LEL (rat [2]; [20]): 10 mg/kg/day | NEL (rat [2]; [20]): < 10 mg/kg/day | LOAEL (rat [2]; [21]): > 1000 mg/kg/day | NOAEL (rat [2]; [21]): ≥ 1000 mg/kg/day | LOAEL (dog [3]; [22]): > 200 mg/kg/day | NOAEL (dog [3]; [22]): ≥ 200 mg/kg/day | LEL (dog [3]; [23]): 10 mg/kg/day | NEL (dog [3]; [23]): < 10 mg/kg/day | LOAEL (primate [4]; [24]): > 1000 mg/kg/day | NOAEL (primate [4]; [24]): ≥ 1000 mg/kg/day | LEL (primate [4]; [25]): 100 mg/kg/day | NEL (primate [4]; [25]): < 100 mg/kg/day | LEL (primate [5]): 10 mg/kg/day | LOAEL (primate [5]): > 50 mg/kg/day | NEL (primate [5]): 5 mg/kg/day | NOAEL (primate [5]): ≥ 50 mg/kg/day | LEL (dog [6]): 2 mg/kg/day | LOAEL (dog [6]): > 5 mg/kg/day | NEL (dog [6]): < 2 mg/kg/day | NOAEL (dog [6]): ≥ 5 mg/kg/day | LEL (dog [7]): 2 mg/kg/day | NEL (dog [7]): < 2 mg/kg/day | LOAEL (rat [8]; [26]): > 75 mg/kg/day | NOAEL (rat [8]; [26]): ≥ 75 mg/kg/day | LOAEL (rat [8]; [27]): > 75 mg/kg/day | NOAEL (rat [8]; [27]): ≥ 75 mg/kg/day | LOAEL (mouse [9]; [28]): > 300 mg/kg/day | NOAEL (mouse [9]; [28]): ≥ 300 mg/kg/day | NEL (mouse [9]; systemic / clinical chemistry / protein / protein): < 35 mg/kg/day | LEL (rat [10]; systemic / in life observation / body weight / body weight): 75 mg/kg/day | LOAEL (rat [10]; [29]): > 100 mg/kg/day | NEL (rat [10]; [29]): 35 mg/kg/day | NOAEL (rat [10]; [29]): ≥ 100 mg/kg/day | LEL (dog [11]): 2 mg/kg/day | LOAEL (dog [11]): > 10 mg/kg/day | NEL (dog [11]): < 2 mg/kg/day | NOAEL (dog [11]): ≥ 10 mg/kg/day | LOAEL (rat [12]; [30]): > 75 mg/kg/day | NOAEL (rat [12]; [30]): ≥ 75 mg/kg/day | LEL (rat [12]; [31]): 5 mg/kg/day | NEL (rat [12]; [31]): < 5 mg/kg/day

C=CC1(C)OC(=O)N(c2cc(Cl)cc(Cl)c2)C1=O (stereo not given) [Vinclozolin]
LEL (rat [13]): 24 mg/kg/day | LOAEL (rat [13]): 24 mg/kg/day | NEL (rat [13]): 4.4 mg/kg/day | NOAEL (rat [13]): 4.4 mg/kg/day | LOAEL (dog [14]; [32]): 47 mg/kg/day | NEL (dog [14]; [32]): 2.4 mg/kg/day | NOAEL (dog [14]; [32]): 4.8 mg/kg/day | LEL (dog [14]; systemic / organ weight / adrenal gland / absolute + systemic / organ weight / adrenal gland / relative to body weight + systemic / clinical…): 4.8 mg/kg/day | LOAEL (rat [15]; [33]): 2.3 mg/kg/day | NOAEL (rat [15]; [33]): < 2.3 mg/kg/day | LEL (rat [15]; [34]): 2.3 mg/kg/day | NEL (rat [15]; [34]): < 2.3 mg/kg/day | LEL (rat [16]; [35]): 30 mg/kg/day | LOAEL (rat [16]; [35]): 30 mg/kg/day | NEL (rat [16]; [35]): 4.9 mg/kg/day | NOAEL (rat [16]; [35]): 4.9 mg/kg/day | LEL (rat [16]; [36]): 4.9 mg/kg/day | LOAEL (rat [16]; [36]): 4.9 mg/kg/day | NEL (rat [16]; [36]): < 4.9 mg/kg/day | NOAEL (rat [16]; [36]): < 4.9 mg/kg/day | NEL (rat [16]; group: reproductive, reproductive / reproductive performance / fertility / fertility): 101 mg/kg/day | LEL (rat [16]; [37]): 290 mg/kg/day | LOAEL (rat [16]; [37]): > 290 mg/kg/day | NOAEL (rat [16]; [37]): ≥ 290 mg/kg/day | LEL (rabbit): 200 mg/kg/day | LOAEL (rabbit): 200 mg/kg/day | NEL (rabbit): 50 mg/kg/day | NOAEL (rabbit): 50 mg/kg/day | LEL (rat [17]): 7 mg/kg/day | LOAEL (rat [17]): 7 mg/kg/day | NEL (rat [17]): < 7 mg/kg/day | NOAEL (rat [17]): < 7 mg/kg/day | LOAEL (mouse [18]; systemic / in life observation / body weight / body weight gain): 20.6 mg/kg/day | LEL (mouse [18]; [38]): 2.1 mg/kg/day | NEL (mouse [18]; [38]): < 2.1 mg/kg/day | NOAEL (mouse [18]; [38]): 2.1 mg/kg/day
